Reference: patent US20230278972A1, “SUBSTITUTED HALOALKYL SULFONANILIDE HERBICIDES” (FMC Corporation, priority 2020, published 2023)

Columns and labels:
Type in all cases: in vivo
[1] = tested on: Ryegrass, Italian (Italian ryegrass, Lolium multiflorum); test: Test A postemergence, Ryegrass, Italian; settings: Postemergence, 0 to 100 scale (0 no effect, 100 complete control)
Outline: (§1)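 Compounds in non-phytotoxic solvent with surfactant. Soil: loam/sand. Preemergence via directed soil spray after seeding; postemergence on seedlings 2–10 cm, one- to two-leaf.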

kochia (Bassia scoparia) [2] = test: Test A postemergence, kochia; settings: Postemergence, 0 to 100 scale (0 no effect, 100 complete control)
Outline: as §1

[3] = tested on: wheat (Triticum aestivum); test: Test A postemergence, wheat; settings: Postemergence, 0 to 100 scale (0 no effect, 100 complete control)
Outline: (§2)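 Preemergence: seeded pots of loam plus sand received a directed soil spray. Postemergence: seedlings at one to two leaves, 2 to 10 cm high, were oversprayed. Each compound was formulated in a non-phytotoxic solvent mix that included a surfactant.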

[4] = tested on: Foxtail, Giant (giant foxtail, Setaria faberi); test: Test A preemergence, Foxtail, Giant; settings: Preemergence; for Plant response rating, Foxtail, Giant: 0 to 100 scale (0 no effect, 100 complete control); for Foxtail, Giant plant response rating: 125 g ai/ha, visual injury on 0 to 100 scale (0 no effect, 100 complete control), approximately 10 days
Outline: as §1

[5] = tested on: ragweed (common ragweed, Ambrosia artemisiifolia); test: Test A postemergence, ragweed; settings: Postemergence, 0 to 100 scale (0 no effect, 100 complete control)
Outline: as §1

[6] = tested on: barnyardgrass (Echinochloa crus-galli); test: Test A postemergence, barnyardgrass; settings: Postemergence, 0 to 100 scale (0 no effect, 100 complete control)
Outline: as §2

[7] = tested on: pigweed (Amaranthus retroflexus); test: Test A postemergence, pigweed; settings: Postemergence, 0 to 100 scale (0 no effect, 100 complete control)
Outline: as §1

[8] = tested on: barnyardgrass (Echinochloa crus-galli); test: Test A preemergence, barnyardgrass; settings: Preemergence; for Plant response rating, Barnyardgrass: 0 to 100 scale (0 no effect, 100 complete control); for Barnyardgrass plant response rating: 125 g ai/ha, visual injury on 0 to 100 scale (0 no effect, 100 complete control), approximately 10 days
Outline: as §1

corn (Zea mays) = test: Test A postemergence, corn; settings: Postemergence, 0 to 100 scale (0 no effect, 100 complete control)
Outline: as §1

[9] = tested on: ragweed (common ragweed, Ambrosia artemisiifolia); test: Test A preemergence, ragweed; settings: Preemergence; for Plant response rating, Ragweed: 0 to 100 scale (0 no effect, 100 complete control); for Ragweed plant response rating: 125 g ai/ha, visual injury on 0 to 100 scale (0 no effect, 100 complete control), approximately 10 days
Outline: as §1

kochia (Bassia scoparia) [10] = test: Test A preemergence, kochia; settings: Preemergence; for Plant response rating, Kochia: 0 to 100 scale (0 no effect, 100 complete control); for Kochia plant response rating: 125 g ai/ha, visual injury on 0 to 100 scale (0 no effect, 100 complete control), approximately 10 days
Outline: as §1

[11] = tested on: blackgrass (Alopecurus myosuroides); test: Test A postemergence, blackgrass; settings: Postemergence, 0 to 100 scale (0 no effect, 100 complete control)
Outline: as §1

[12] = tested on: Foxtail, Giant (giant foxtail, Setaria faberi); test: Test A postemergence, Foxtail, Giant; settings: Postemergence, 0 to 100 scale (0 no effect, 100 complete control)
Outline: as §1

[13] = tested on: pigweed (Amaranthus retroflexus); test: Test A preemergence, pigweed; settings: for Plant response rating, Pigweed: 0 to 100 scale (0 no effect, 100 complete control); for Pigweed plant response rating: 125 g ai/ha, visual injury on 0 to 100 scale (0 no effect, 100 complete control), approximately 10 days
Outline: as §2

[14] = tested on: galium (catchweed bedstraw, Galium aparine); test: Test A postemergence, galium; settings: Postemergence, 0 to 100 scale (0 no effect, 100 complete control)
Outline: as §2

[15] = tested on: Ryegrass, Italian (Italian ryegrass, Lolium multiflorum); test: Test A preemergence, Ryegrass, Italian; settings: Preemergence; for Plant response rating, Ryegrass, Italian: 0 to 100 scale (0 no effect, 100 complete control); for Ryegrass, Italian plant response rating: 125 g ai/ha, visual injury on 0 to 100 scale (0 no effect, 100 complete control), approximately 10 days
Outline: as §1

[16] = 125 g ai/ha, visual injury approx. 10 days
[17] = 31 g ai/ha, visual injury, approx. 10 days
[18] = 500 g ai/ha, visual injury, approx. 10 days

Structure (SMILES) | Plant response rating, Ryegrass, Italian [1, 16] | Plant response rating, Kochia (kochia (Bassia scoparia) [2]; [16]) | Plant response rating, Wheat [3, 16] | Foxtail, Giant plant response rating [4] | Plant response rating, Ragweed [5, 16] | Plant response rating, Barnyardgrass [6, 16] | Plant response rating, Pigweed [7, 16] | Barnyardgrass plant response rating [8] | Plant response rating, Corn (corn (Zea mays); [16]) | Ragweed plant response rating [9] | Kochia plant response rating (kochia (Bassia scoparia) [10]) | Plant response rating, Blackgrass [11, 16] | Plant response rating, Foxtail, Giant [12, 16] | Pigweed plant response rating [13] | Plant response rating, Galium [14, 16] | Ryegrass, Italian plant response rating [15] | Plant response rating, Ryegrass, Italian [1, 18] | Plant response rating, Kochia (kochia (Bassia scoparia) [2]; [18]) | Plant response rating, Wheat [3, 18] | Plant response rating, Foxtail, Giant ([4]; 500 g ai/ha) | also measured
CSc1cc(-c2cc(NS(=O)(=O)C(F)(F)F)c(C)cc2C)c(=O)n(C)n1 [Compound 36] | 10 | 20 | 50 | 80 | 0 | 0 | 30 | 50 | 0 | 0 | 0 | 0 | 0 | 10 | 40 | 60 |  |  |  |  | Plant response rating, Ryegrass, Italian ([1]; 31 g ai/ha): 20; Plant response rating, Kochia (kochia (Bassia scoparia) [2]; 31 g ai/ha): 10; Plant response rating, Wheat ([3]; 31 g ai/ha): 0; Plant response rating, Foxtail, Giant [4, 17]: 20; Plant response rating, Ragweed ([5]; 31 g ai/ha): 0; Plant response rating, Barnyardgrass ([6]; 31 g ai/ha): 0; Plant response rating, Pigweed ([7]; 31 g ai/ha): 0; Plant response rating, Barnyardgrass [8, 17]: 0; Plant response rating, Corn (corn (Zea mays); 31 g ai/ha): 0; Plant response rating, Ragweed [9, 17]: 0; Plant response rating, Kochia (kochia (Bassia scoparia) [10]; [17]): 0; Plant response rating, Blackgrass ([11]; 31 g ai/ha): 0; Plant response rating, Foxtail, Giant ([12]; 31 g ai/ha): 0; Plant response rating, Pigweed [13, 17]: 0; Plant response rating, Galium ([14]; 31 g ai/ha): 20; Plant response rating, Ryegrass, Italian [15, 17]: 0
CCn1c(=O)c(-c2cc(NS(=O)(=O)C(F)(F)F)c(C)cc2C)cn(C)c1=O [Compound 37] | 90 | 60 | 80 | 100 | 30 | 90 | 50 | 90 | 20 | 40 | 80 | 80 | 90 | 50 | 90 | 100 | 90 | 70 | 80 | 100 | Plant response rating, Ragweed [5, 18]: 70; Plant response rating, Barnyardgrass [6, 18]: 90; Plant response rating, Pigweed [7, 18]: 50; Plant response rating, Barnyardgrass ([8]; 500 g ai/ha): 90; Plant response rating, Corn (corn (Zea mays); [18]): 80; Plant response rating, Ragweed ([9]; 500 g ai/ha): 80; Plant response rating, Kochia (kochia (Bassia scoparia) [10]; 500 g ai/ha): 90; Plant response rating, Blackgrass [11, 18]: 90; Plant response rating, Foxtail, Giant [12, 18]: 90; Plant response rating, Pigweed ([13]; 500 g ai/ha): 90; Plant response rating, Galium [14, 18]: 100; Plant response rating, Ryegrass, Italian ([15]; 500 g ai/ha): 100
Cc1cc(Cl)c(N(S(=O)(=O)C(F)(F)F)S(=O)(=O)C(F)(F)F)cc1-c1cn(C)c(=O)n(C)c1=O [Compound 38] | 60 | 60 | 70 | 100 | 80 | 60 | 70 | 90 | 20 | 70 | 80 | 80 | 90 | 40 | 80 | 100 | 80 | 70 | 70 | 100 | Plant response rating, Ragweed [5, 18]: 90; Plant response rating, Barnyardgrass [6, 18]: 80; Plant response rating, Pigweed [7, 18]: 90; Plant response rating, Barnyardgrass ([8]; 500 g ai/ha): 100; Plant response rating, Corn (corn (Zea mays); [18]): 70; Plant response rating, Ragweed ([9]; 500 g ai/ha): 90; Plant response rating, Kochia (kochia (Bassia scoparia) [10]; 500 g ai/ha): 90; Plant response rating, Blackgrass [11, 18]: 90; Plant response rating, Foxtail, Giant [12, 18]: 90; Plant response rating, Pigweed ([13]; 500 g ai/ha): 80; Plant response rating, Galium [14, 18]: 90; Plant response rating, Ryegrass, Italian ([15]; 500 g ai/ha): 100
Cc1cc(C)c(N(S(C)(=O)=O)S(=O)(=O)C(F)(F)F)cc1-c1cc(C(C)C)nn(C)c1=O [Compound 39] | 0 | 0 | 60 | 10 | 20 | 0 | 0 | 40 | 0 | 0 | 0 | 0 | 0 | 0 | 0 | 30 | 40 | 0 | 60 | 90 | Plant response rating, Ragweed [5, 18]: 70; Plant response rating, Barnyardgrass [6, 18]: 30; Plant response rating, Pigweed [7, 18]: 0; Plant response rating, Barnyardgrass ([8]; 500 g ai/ha): 90; Plant response rating, Corn (corn (Zea mays); [18]): 0; Plant response rating, Ragweed ([9]; 500 g ai/ha): 30; Plant response rating, Kochia (kochia (Bassia scoparia) [10]; 500 g ai/ha): 0; Plant response rating, Blackgrass [11, 18]: 0; Plant response rating, Foxtail, Giant [12, 18]: 0; Plant response rating, Pigweed ([13]; 500 g ai/ha): 0; Plant response rating, Galium [14, 18]: 0; Plant response rating, Ryegrass, Italian ([15]; 500 g ai/ha): 70
COc1cnn(-c2cc(N(S(=O)(=O)C(F)(F)F)S(=O)(=O)C(F)(F)F)c(C)cc2C)c(=O)c1OC [Compound 40] | 30 | 10 | 0 | 90 | 40 | 10 | 0 | 90 | 0 | 50 | 80 | 10 | 0 | 100 | 20 | 30 | 60 | 20 | 40 | 100 | Plant response rating, Ragweed [5, 18]: 40; Plant response rating, Barnyardgrass [6, 18]: 40; Plant response rating, Pigweed [7, 18]: 30; Plant response rating, Barnyardgrass ([8]; 500 g ai/ha): 90; Plant response rating, Corn (corn (Zea mays); [18]): 0; Plant response rating, Ragweed ([9]; 500 g ai/ha): 50; Plant response rating, Kochia (kochia (Bassia scoparia) [10]; 500 g ai/ha): 80; Plant response rating, Blackgrass [11, 18]: 10; Plant response rating, Foxtail, Giant [12, 18]: 10; Plant response rating, Pigweed ([13]; 500 g ai/ha): 100; Plant response rating, Galium [14, 18]: 70; Plant response rating, Ryegrass, Italian ([15]; 500 g ai/ha): 80
Cc1cc(C)c(-c2cc(C(C)C)nn(C)c2=O)cc1NS(=O)(=O)C(F)(F)F [Compound 41] | 60 | 0 | 50 | 10 | 40 | 0 | 0 | 50 | 0 | 30 | 0 | 0 | 0 | 0 | 10 | 60 | 60 | 0 | 60 | 80 | Plant response rating, Ragweed [5, 18]: 70; Plant response rating, Barnyardgrass [6, 18]: 80; Plant response rating, Pigweed [7, 18]: 0; Plant response rating, Barnyardgrass ([8]; 500 g ai/ha): 90; Plant response rating, Corn (corn (Zea mays); [18]): 0; Plant response rating, Ragweed ([9]; 500 g ai/ha): 80; Plant response rating, Kochia (kochia (Bassia scoparia) [10]; 500 g ai/ha): 0; Plant response rating, Blackgrass [11, 18]: 40; Plant response rating, Foxtail, Giant [12, 18]: 30; Plant response rating, Pigweed ([13]; 500 g ai/ha): 0; Plant response rating, Galium [14, 18]: 30; Plant response rating, Ryegrass, Italian ([15]; 500 g ai/ha): 80
